Data reported in ChEMBL document CHEMBL1909046, “DrugMatrix in vitro pharmacology data”.

Legend:
[1] = molecular target: Glycine receptor (Rattus norvegicus, UniProt P22771+P24524+P07727+P20781); format: cell membranes, Wistar, Spinal cord, Membrane; also: in other assays of this panel Not Active means under 50% inhibition at 10 µM
[2] = molecular target: Histamine H2 receptor (Homo sapiens, UniProt P25021); format: cell membranes, CHO-K1, Membrane; also: in other assays of this panel Not Active means under 50% inhibition at 10 µM
Histamine H2 receptor, sequence (P25021 whole entry): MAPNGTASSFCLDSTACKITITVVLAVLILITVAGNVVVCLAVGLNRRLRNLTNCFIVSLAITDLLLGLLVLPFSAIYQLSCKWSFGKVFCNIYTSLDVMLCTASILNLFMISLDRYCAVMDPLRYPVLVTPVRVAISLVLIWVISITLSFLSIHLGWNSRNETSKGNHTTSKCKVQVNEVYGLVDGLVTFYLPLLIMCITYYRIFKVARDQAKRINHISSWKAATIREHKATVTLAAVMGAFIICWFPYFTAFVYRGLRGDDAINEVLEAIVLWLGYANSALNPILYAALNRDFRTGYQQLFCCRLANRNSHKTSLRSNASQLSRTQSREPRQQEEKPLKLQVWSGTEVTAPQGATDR

[3] = molecular target: Protein kinase C alpha type (Homo sapiens, UniProt P17252); format: cell-based; conditions: sf9;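 also: inhibition of PKCalpha kinase activity measured in an enzyme assay with histone as the phosphorylation substrate; in other assays of this panel Not Active means under 50% inhibition at 10 µM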
[4] = molecular target: Melanocortin receptor 4 (Homo sapiens, UniProt P32245); format: cell membranes, Membrane; conditions: hek293; also: in other assays of this panel Not Active means under 50% inhibition at 10 µM
Melanocortin receptor 4, sequence (P32245 whole entry): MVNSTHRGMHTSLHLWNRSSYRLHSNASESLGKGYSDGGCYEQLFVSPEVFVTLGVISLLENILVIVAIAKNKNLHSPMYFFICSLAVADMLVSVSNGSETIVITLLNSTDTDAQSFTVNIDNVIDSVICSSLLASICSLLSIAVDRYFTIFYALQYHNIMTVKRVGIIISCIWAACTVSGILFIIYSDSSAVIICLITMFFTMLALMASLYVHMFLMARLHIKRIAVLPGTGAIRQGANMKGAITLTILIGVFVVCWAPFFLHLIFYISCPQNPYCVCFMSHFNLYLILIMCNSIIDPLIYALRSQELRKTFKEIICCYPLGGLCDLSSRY

[5] = molecular target: T1, C-X-C chemokine receptor type 2 (Homo sapiens, UniProt P25025); format: cell membranes, Membrane; conditions: cho-k1; also: in other assays of this panel Not Active means under 50% inhibition at 10 µM
T1 sequence (P25025 whole entry): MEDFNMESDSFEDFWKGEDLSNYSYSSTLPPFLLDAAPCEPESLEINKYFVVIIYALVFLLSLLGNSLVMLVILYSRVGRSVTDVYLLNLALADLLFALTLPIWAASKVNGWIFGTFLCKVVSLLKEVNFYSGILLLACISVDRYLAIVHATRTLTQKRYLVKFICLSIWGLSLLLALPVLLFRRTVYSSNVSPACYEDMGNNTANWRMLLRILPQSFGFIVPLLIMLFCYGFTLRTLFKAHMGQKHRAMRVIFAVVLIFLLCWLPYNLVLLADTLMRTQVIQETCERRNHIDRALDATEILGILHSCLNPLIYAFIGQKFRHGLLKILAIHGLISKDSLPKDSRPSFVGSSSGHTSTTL

[6] = DRUGMATRIX: Interleukin IL-1 radioligand binding (ligand: [125I] interleukin 1beta); format: cell membranes, Membrane; conditions: nih3t3; Not Active = under 50% inhibition at 10 µM
[7] = molecular target: T2, Calcitonin receptor (Homo sapiens, UniProt P30988); format: cell membranes, Membrane; conditions: t47d; also: in other assays of this panel Not Active means under 50% inhibition at 10 µM
T2 sequence (P30988 whole entry): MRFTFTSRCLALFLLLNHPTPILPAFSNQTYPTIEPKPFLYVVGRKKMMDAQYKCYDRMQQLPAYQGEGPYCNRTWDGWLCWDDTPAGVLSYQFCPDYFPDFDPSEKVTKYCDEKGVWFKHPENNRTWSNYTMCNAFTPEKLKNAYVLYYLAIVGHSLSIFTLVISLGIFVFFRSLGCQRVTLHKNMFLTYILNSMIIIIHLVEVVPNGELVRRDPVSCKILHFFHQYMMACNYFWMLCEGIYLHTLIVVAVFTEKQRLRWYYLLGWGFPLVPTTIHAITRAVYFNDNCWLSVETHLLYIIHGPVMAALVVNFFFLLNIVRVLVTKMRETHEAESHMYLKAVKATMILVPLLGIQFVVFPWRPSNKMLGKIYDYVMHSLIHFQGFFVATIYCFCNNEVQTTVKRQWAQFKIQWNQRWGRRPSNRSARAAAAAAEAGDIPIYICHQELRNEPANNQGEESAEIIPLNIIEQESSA

[8] = molecular target: 5-hydroxytryptamine receptor 1B (Rattus norvegicus, UniProt P28564); format: cell membranes, Wistar, Cerebral cortex, Membrane; also: in other assays of this panel Not Active means under 50% inhibition at 10 µM
5-hydroxytryptamine receptor 1B, sequence (P28564 whole entry): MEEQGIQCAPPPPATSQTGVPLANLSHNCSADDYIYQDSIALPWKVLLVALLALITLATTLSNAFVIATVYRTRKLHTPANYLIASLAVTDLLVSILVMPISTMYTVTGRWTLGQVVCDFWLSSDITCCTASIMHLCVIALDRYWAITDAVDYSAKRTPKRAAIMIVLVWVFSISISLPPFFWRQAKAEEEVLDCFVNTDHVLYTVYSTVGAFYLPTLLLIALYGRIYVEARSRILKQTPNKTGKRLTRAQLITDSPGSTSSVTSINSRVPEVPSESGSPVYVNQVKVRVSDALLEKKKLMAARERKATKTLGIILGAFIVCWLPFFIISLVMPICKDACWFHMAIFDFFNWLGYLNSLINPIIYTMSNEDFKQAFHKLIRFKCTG

Molecule | IC50 [1] | IC50 ([2]; cho-k1) | IC50 [3] | IC50 [4] | IC50 [5] | IC50 [6] | Ki [6] | IC50 [7] | IC50 [8] | IC50 ([2]; read-out: IC50) | Ki ([2]; read-out: Ki) | Ki [1] | Ki ([2]; cho-k1) | Ki [3] | Ki [4] | Ki [5] | Ki [7] | Ki [8]
Nc1ccc(S(=O)(=O)Nc2nccs2)cc1 [SULFATHIAZOLE] | Not Active | Not Active | Not Active | Not Active | Not Active | Not Active | Not Active | Not Active | Not Active |  |  |  |  |  |  |  |  | 
C[C@]12CC[C@H]3[C@@H](CCC4=CC(=O)CC[C@@]43C)[C@@H]1CC[C@@H]2O [TESTOSTERONE] | Not Active | Not Active | Not Active | Not Active | Not Active | Not Active | Not Active | Not Active | Not Active |  |  |  |  |  |  |  |  | 
CC(C)(C)NC[C@H](O)COc1nsnc1N1CCOCC1 [TIMOLOL] | Not Active | Not Active | Not Active | Not Active | Not Active | Not Active | Not Active | Not Active | Not Active |  |  |  |  |  |  |  |  | 
CCS(=O)(=O)CCn1c([N+](=O)[O-])cnc1C [TINIDAZOLE] | Not Active | Not Active | Not Active | Not Active | Not Active | Not Active | Not Active | Not Active | Not Active |  |  |  |  |  |  |  |  | 
C[C@@H]1C[C@H]2[C@@H]3CCC4=CC(=O)C=C[C@]4(C)C3=CC[C@]2(C)[C@H]1C(=O)CN1CCN(c2cc(N3CCCC3)nc(N3CCCC3)n2)CC1 [TIRILAZAD] | Not Active |  | Not Active | Not Active | Not Active | Not Active | Not Active | Not Active | Not Active | 14.1 µM | 13.9 µM |  |  |  |  |  |  | 
NC[C@H]1O[C@H](O[C@H]2[C@H](O)[C@@H](O[C@H]3O[C@H](CO)[C@@H](O)[C@H](N)[C@H]3O)[C@H](N)C[C@@H]2N)[C@H](N)C[C@@H]1O [TOBRAMYCIN] | Not Active | Not Active | Not Active | Not Active | Not Active | Not Active | Not Active | Not Active | Not Active |  |  |  |  |  |  |  |  | 
O=C(O)C(Cl)(Cl)Cl [TRICHLOROACETIC ACID] | Not Active | Not Active | Not Active | Not Active | Not Active | Not Active | Not Active | Not Active | Not Active |  |  |  |  |  |  |  |  | 
COc1ccc(CN2CCNCC2)c(OC)c1OC [TRIMETAZIDINE] | Not Active | Not Active | Not Active | Not Active | Not Active | Not Active | Not Active | Not Active | Not Active |  |  |  |  |  |  |  |  | 
CC(=O)O[C@H]1C[C@@H]2CC[C@@H]3[C@H](CC[C@@]4(C)[C@H]3C[C@H]([N+]3(C)CCCCC3)[C@@H]4OC(C)=O)[C@@]2(C)C[C@@H]1N1CCCCC1.[Br-] [VECURONIUM BROMIDE] | Not Active | Not Active | Not Active | Not Active | Not Active | Not Active | Not Active | Not Active | Not Active |  |  |  |  |  |  |  |  | 
COc1cc(C(=O)NS(=O)(=O)c2ccccc2C)ccc1Cc1cn(C)c2ccc(NC(=O)OC3CCCC3)cc12 [ZAFIRLUKAST] | Not Active | Not Active | Not Active | Not Active | Not Active | Not Active | Not Active | Not Active | Not Active |  |  |  |  |  |  |  |  | 
Cc1cn([C@H]2C[C@H](N=[N+]=[N-])[C@@H](CO)O2)c(=O)[nH]c1=O [ZIDOVUDINE] | Not Active | Not Active | Not Active | Not Active | Not Active | Not Active | Not Active | Not Active | Not Active |  |  |  |  |  |  |  |  | 
STANNOUS FLUORIDE | Not Active | Not Active | Not Active | Not Active | Not Active | Not Active | Not Active | Not Active | Not Active |  |  | Not Active | Not Active | Not Active | Not Active | Not Active | Not Active | Not Active
THIMEROSAL | Not Active | Not Active | Not Active | Not Active | Not Active | Not Active | Not Active | Not Active | Not Active |  |  | Not Active | Not Active | Not Active | Not Active | Not Active | Not Active | Not Active
